Here are results for ten molecules from ChEMBL document CHEMBL1201862, “PubChem BioAssay data set” (2004).

SMILES strings stand for the structures.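 Interpolation was linear, between the two tested concentrations surrounding the appropriate level; five concentrations were tested over 48 hours in 96-well plates. GI50 is the concentration that inhibits growth by half.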 Calls of active or inactive are those of the source. No stated cut-off is given here; in the data, active = GI50 up to about 1.1 µM and inactive = higher. Bounds are passed on as bounds.

Test systems include UO-31; MOLT-4; UACC-257; LOX IMVI; IGROV-1; UACC-62; SK-MEL-5; OVCAR-8; SF-295; HCT-116; ACHN; SN12C; KM12; NCI-H23; SF-539; MDA-N; TK-10; HCT-15; CAKI-1; SW-620.
Holding throughout (experiment): NCI-60 cell line screen, 48 h

On to `S=C(N/N=C(\c1ccccc1)c1ccccn1)NC1CCCCC1`, for which the GI50 with UO-31 is 12.9 µM (inactive); in the assay with MOLT-4, 0.54 µM (active); in the assay on UACC-257, 2.24 µM (inactive); in the assay with LOX IMVI, 2.61 µM (inactive); with IGROV-1 it was 0.31 µM (active); with UACC-62, > 29.8 µM (inactive). Besides, the GI50 in the assay with SK-MEL-5 was 13.1 µM (inactive); with OVCAR-8, 0.34 µM (active); in the assay with SF-295 it was 26.5 µM (inactive); in the assay with HCT-116 it was 0.566 µM (active); in the assay with ACHN it was 0.571 µM (active); in the assay on SN12C, 0.804 µM (active). The GI50 with KM12 is 13.1 µM (inactive); in the assay on NCI-H23, 1.6 µM (inactive); in the assay with SF-539, 3.08 µM (inactive); in the assay on MDA-N it was 78.7 µM (inactive); in the assay on TK-10 it was 0.849 µM (active); with HCT-15, 1.02 µM. Further, the GI50 in the assay with CAKI-1 is 0.834 µM (active); with SW-620, 1.19 µM (inactive).
Turning to `Fc1ccc(/C(=N/Cc2ccccc2)N2CCOCC2)cc1`, the GI50 in the assay with UO-31 is 67.5 µM (inactive); in the assay with MOLT-4, > 100 µM (inactive); with UACC-257 it was > 100 µM (inactive); in the assay on LOX IMVI it was > 100 µM (inactive); with IGROV-1, > 100 µM (inactive); with UACC-62, > 100 µM (inactive). In addition, the GI50 with SK-MEL-5, with OVCAR-8, in the assay on SF-295, with HCT-116, in the assay on ACHN and with SN12C was > 100 µM (inactive) throughout. For the same molecule, the GI50 is > 100 µM (inactive) with KM12; > 100 µM (inactive) in the assay with NCI-H23; > 100 µM (inactive) in the assay with SF-539; > 100 µM (inactive) in the assay with MDA-N; > 100 µM (inactive) in the assay on TK-10; more than 100 µM with HCT-15. The GI50 in the assay on CAKI-1 and in the assay on SW-620 was > 100 µM (inactive) throughout.
On to `CCCCCCCCCCCCCC(=O)OC(/C=C/C(C)C)C(O)C(O)C(OC)C(=O)NC1CCCCNC1=O` (stereo not given), for which the GI50 was 0.989 µM (active) in the assay with UO-31; 0.57 µM (active) in the assay with MOLT-4; 2.84 µM (inactive) in the assay with UACC-257; 0.408 µM (active) with LOX IMVI; 0.527 µM (active) in the assay with IGROV-1; 0.697 µM (active) with UACC-62. The GI50 in the assay on SK-MEL-5 is 1.9 µM (inactive); with OVCAR-8, 1.02 µM (active); with SF-295, 0.721 µM (active); in the assay with HCT-116 it was 0.242 µM (active); in the assay with ACHN, 0.689 µM (active); with SN12C, 0.579 µM (active). Moreover, the GI50 in the assay with KM12 was 0.448 µM (active); with NCI-H23 it was 1.2 µM (inactive); in the assay with SF-539, 1.38 µM (inactive); in the assay with MDA-N it was 9.04 µM (inactive); with TK-10 it was 5.6 µM (inactive); in the assay with HCT-15, 1.43 µM. Besides, the GI50 was 0.48 µM (active) in the assay with CAKI-1 and 0.372 µM (active) with SW-620.
`CCNC(=S)/N=c1\sc(NCC)nc2sc3c(c12)CCN(N1CCc2c(sc4nc(NCC)s/c(=N\C(=S)NCC)c24)C1)C3`: the GI50 in the assay with UO-31 is > 100 µM (inactive); in the assay with MOLT-4, 34.1 µM (inactive); in the assay on UACC-257, > 100 µM (inactive); in the assay with LOX IMVI, 26 µM (inactive); in the assay with IGROV-1, 39.8 µM (inactive); in the assay with UACC-62, > 100 µM (inactive). Further, the GI50 with SK-MEL-5 is 31.8 µM (inactive); in the assay on OVCAR-8 it was 60.4 µM (inactive); with SF-295, 72.4 µM (inactive); with HCT-116, 19.5 µM (inactive); in the assay with ACHN, 62.8 µM (inactive); in the assay on SN12C, > 100 µM (inactive). For the same molecule, the GI50 was 40.2 µM (inactive) in the assay with KM12; > 100 µM (inactive) in the assay on NCI-H23; 15.5 µM (inactive) with SF-539; 91.4 µM (inactive) in the assay with MDA-N; > 100 µM (inactive) in the assay with TK-10; more than 100 µM in the assay on HCT-15. For the same molecule, the GI50 in the assay with CAKI-1 was > 100 µM (inactive); in the assay with SW-620, 34.7 µM (inactive).
As to `CC(C)c1c(O[Si](C(C)C)(C(C)C)C(C)C)c2c3c(ccc4c3c1OC4(C)C)C(C)CC2` (stereo not given), the GI50 in the assay on UO-31, with MOLT-4, with UACC-257, in the assay on LOX IMVI, in the assay on IGROV-1 and with UACC-62 was > 100 µM (inactive) throughout. For the same molecule, the GI50 in the assay on SK-MEL-5, with OVCAR-8, in the assay with SF-295, in the assay with HCT-116, in the assay with ACHN and in the assay with SN12C was > 100 µM (inactive) each time. In addition, the GI50 was > 100 µM (inactive) in the assay with KM12; > 100 µM (inactive) with NCI-H23; > 100 µM (inactive) in the assay on SF-539; > 100 µM (inactive) with MDA-N; > 100 µM (inactive) with TK-10; more than 100 µM in the assay with HCT-15. Besides, the GI50 with CAKI-1 and in the assay on SW-620 was > 100 µM (inactive) each time.
Consider `CCOC(=O)Nc1ccc2c(c1)c(CCCCCCc1nc3ccccc3c3ccc(NC(=O)OCC)cc13)nc1ccccc12`, for which the GI50 was 68.4 µM (inactive) in the assay with UO-31; > 100 µM (inactive) in the assay with MOLT-4; 47.2 µM (inactive) in the assay on UACC-257; 21.6 µM (inactive) in the assay with LOX IMVI; > 100 µM (inactive) in the assay with IGROV-1; > 100 µM (inactive) with UACC-62. In addition, the GI50 is 78.9 µM (inactive) in the assay with SK-MEL-5; 25.4 µM (inactive) in the assay on OVCAR-8; 49.5 µM (inactive) in the assay on SF-295; 54.3 µM (inactive) in the assay on HCT-116; 39 µM (inactive) with ACHN; 40.6 µM (inactive) in the assay with SN12C. The GI50 was > 100 µM (inactive) with KM12; > 100 µM (inactive) with NCI-H23; 12.5 µM (inactive) in the assay with SF-539; 61.2 µM (inactive) in the assay with MDA-N; 26.2 µM (inactive) with TK-10; more than 100 µM with HCT-15. Further, the GI50 is 34.8 µM (inactive) with CAKI-1 and > 100 µM (inactive) in the assay with SW-620.
Take `C=C(CC(=O)Nc1ccc(C(=O)OC)o1)C(=O)OC`: the GI50 is 20.6 µM (inactive) with UO-31; 18.8 µM (inactive) with MOLT-4; 21.3 µM (inactive) in the assay on UACC-257; 30.8 µM (inactive) with LOX IMVI; 23 µM (inactive) with IGROV-1; 25.4 µM (inactive) in the assay with UACC-62. Also, the GI50 in the assay on SK-MEL-5 is 18.5 µM (inactive); with OVCAR-8, 36.9 µM (inactive); with SF-295, 34.5 µM (inactive); with HCT-116 it was 29.4 µM (inactive); with ACHN, 18.7 µM (inactive); with SN12C it was 24.9 µM (inactive). Moreover, the GI50 is 19.9 µM (inactive) in the assay on KM12; 28 µM (inactive) in the assay on NCI-H23; 17.3 µM (inactive) in the assay with SF-539; > 10 µM (inactive) in the assay on MDA-N; 20.8 µM (inactive) in the assay with TK-10; 24.7 µM in the assay on HCT-15. Besides, the GI50 was 24.5 µM (inactive) in the assay with CAKI-1 and 22 µM (inactive) in the assay with SW-620.
Take `O=c1c(Br)cc2c(-c3ccccc3)c3cc(Br)c(O)c(Br)c3oc-2c1Br`: the GI50 is > 100 µM (inactive) in the assay on UO-31; 29.1 µM (inactive) in the assay with MOLT-4; > 100 µM (inactive) in the assay on UACC-257; 37.4 µM (inactive) in the assay on LOX IMVI; > 100 µM (inactive) with IGROV-1; > 100 µM (inactive) in the assay on UACC-62. Moreover, the GI50 in the assay on SK-MEL-5 was > 100 µM (inactive); in the assay with OVCAR-8 it was > 100 µM (inactive); in the assay with SF-295 it was 84.9 µM (inactive); in the assay on HCT-116 it was 44.8 µM (inactive); in the assay on ACHN, > 100 µM (inactive); with SN12C it was > 100 µM (inactive). Further, the GI50 in the assay with KM12 is > 100 µM (inactive); in the assay with NCI-H23, > 100 µM (inactive); with SF-539, 39.5 µM (inactive); with MDA-N it was > 100 µM (inactive); with TK-10, > 100 µM (inactive); in the assay on HCT-15, 56 µM. The GI50 with CAKI-1 and in the assay with SW-620 was > 100 µM (inactive) in each case.
`Cc1cc(C)nc(NS(=O)(=O)c2ccc(NNC(=O)c3cccc4c(NNc5ccc(S(=O)(=O)Nc6nc(C)cc(C)n6)cc5)c5ccccc5nc34)cc2)n1`: the GI50 with UO-31 was 18.9 µM (inactive); in the assay with MOLT-4 it was 26 µM (inactive); in the assay on UACC-257, 31 µM (inactive); with LOX IMVI, 17.2 µM (inactive); in the assay on IGROV-1 it was 20 µM (inactive); with UACC-62, 18.5 µM (inactive). The GI50 in the assay on SK-MEL-5 is 16.9 µM (inactive); with OVCAR-8 it was 20.6 µM (inactive); in the assay on SF-295 it was 31.8 µM (inactive); in the assay with HCT-116, 22.9 µM (inactive); in the assay on ACHN it was 17.3 µM (inactive); in the assay on SN12C, 31.1 µM (inactive). In addition, the GI50 is 17.8 µM (inactive) in the assay with KM12; 22.8 µM (inactive) in the assay on NCI-H23; 20.3 µM (inactive) in the assay on SF-539; 20.9 µM (inactive) with MDA-N; 35.5 µM (inactive) in the assay on TK-10; 19.7 µM in the assay with HCT-15. The GI50 is 18.8 µM (inactive) in the assay on CAKI-1 and 22.1 µM (inactive) with SW-620.
For `COc1ccc2nc3ccccc3c(NCCCCCN(CCCl)CCCl)c2c1`, the GI50 was 0.0705 µM (active) in the assay with UO-31; 0.0165 µM (active) in the assay with MOLT-4; 1.03 µM (active) in the assay with UACC-257; 0.0294 µM (active) in the assay on LOX IMVI; 0.177 µM (active) with IGROV-1; 0.036 µM (active) with UACC-62. The GI50 in the assay on SK-MEL-5 is 0.119 µM (active); in the assay on OVCAR-8, 0.0274 µM (active); in the assay with SF-295, 0.0255 µM (active); in the assay with HCT-116, 0.0295 µM (active); in the assay with ACHN, 0.0266 µM (active); in the assay on SN12C, 0.0283 µM (active). In addition, the GI50 is 0.0933 µM (active) in the assay on KM12; 0.0863 µM (active) with NCI-H23; 0.0787 µM (active) in the assay with SF-539; 0.121 µM (active) with MDA-N; 0.381 µM (active) with TK-10; 0.0619 µM with HCT-15. In addition, the results for the GI50 in the assay on CAKI-1 and with SW-620 were 0.0542 µM (active) and 0.0227 µM (active), respectively.
